Tested on: human liver cancer-derived cell line Hep3B
Test: In vitro erythropoietin (EPO) induction activity in Hep3B cells (human EPO ELISA of culture supernatant)
Assay type: cell-based
Conditions: test compound 12.5 μM, Hep3B cells cultured 24 hours at 37° C., multiple of the EPO concentration in the control (0.5% DMSO = 1)
Experimental: In vitro erythropoietin (EPO) induction activity of test compounds was evaluated using human liver cancer-derived cell line Hep3B (ATCC, Manassas, Va.). Hep3B cells were cultured overnight at 37° C. in Dulbecco's modified Eagle's medium (DMEM) in the presence of 10% fetal bovine serum (FBS) (24-well plate, 1.0×10^5 cells/well). After replacing with fresh DMEM (+10% FBS) containing a test compound dissolved in 0.5% dimethyl sulfoxide (DMSO) (prepared to a concentration of 12.5 μM) or a solvent control (0.5% DMSO), the cells were cultured for 24 hours at 37° C. After recovering the culture supernatant, EPO concentration in the culture supernatant was quantified using a human EPO ELISA kit (StemCell Technologies).
The EPO concentration in the case of using a compound of each example as a test compound was expressed as a multiple of the EPO concentration in the control.

Question: How did the fold induction at 12.5 µM turn out when `Cc1cc(-c2ccc(N3CCC(Cc4nc(C)c(O)c(C(=O)NCC(=O)O)n4)CC3)cc2)ccc1CO` [Example 40, ({[5-Hydroxy-2-({1-[4′-(hydroxymethyl)-3′-methylbiphenyl-4-yl]piperidin-4-yl}methyl)-6-methylpyrimidin-4-yl]carbonyl}amino)acetic acid] was run?
Answer: 25

Question: Which fold induction at 12.5 µM does the source give for `CCC(O)Cc1ccc(-c2ccc(N3CCC(Cc4nc(C)c(O)c(C(=O)NCC(=O)O)n4)CC3)cc2)cc1` (stereo not shown) [Example 27, ({[5-Hydroxy-2-{(1-[4′-(2-hydroxybutyl)biphenyl-4-yl]piperidin-4-yl}methyl)-6-methylpyrimidin-4-yl]carbonyl}amino)acetic acid] here?
Answer: 30

Question: How did the fold induction at 12.5 µM turn out when `Cc1nc(CC2CCN(c3ccc(-c4ccc(CCO)cc4)cc3)CC2)nc(C(=O)NCC(=O)O)c1O` [Example 4, ({[5-Hydroxy-2-({1-[4′-(2-hydroxyethyl)biphenyl-4-yl]piperidin-4-yl}methyl)-6-methylpyrimidin-4-yl]carbonyl}amino)acetic acid] was run?
Answer: 73

Question: Which fold induction at 12.5 µM does the source give for `Cc1nc(CC2CCN(c3ccc(-c4ccc(CO)cc4F)cc3)CC2)nc(C(=O)NCC(=O)O)c1O` [Example 36, ({[2-{(1-[2′-Fluoro-4′-(hydroxymethyl)biphenyl-4-yl]piperidin-4-yl}methyl)-5-hydroxy-6-methylpyrimidin-4-yl]carbonyl}amino)acetic acid] here?
Answer: 25

Question: How did the fold induction at 12.5 µM turn out when `Cc1nc(CC2CCN(c3ccc(-c4ccc(C(=O)N(C)C)cc4)cc3)CC2)nc(C(=O)NCC(=O)O)c1O` [Example 7, ({[2-{(1-[4′-(Dimethylcarbamoyl)biphenyl-4-yl]piperidin-4-yl}methyl)-5-hydroxy-6-methylpyrimidin-4-yl]carbonyl}amino)acetic acid] was run?
Answer: 50

Question: How did the fold induction at 12.5 µM turn out when `COC[C@@H](O)Cc1ccc(-c2ccc(N3CCC(Cc4nc(C)c(O)c(C(=O)NCC(=O)O)n4)CC3)cc2)cc1` [Example 50, [({5-Hydroxy-2-[(1-{4′-[(2S)-2-hydroxy-3-methoxypropyl]biphenyl-4-yl}piperidin-4-yl)methyl]-6-methylpyrimidin-4-yl}carbonyl)amino]acetic acid] was run?
Answer: 23

Question: For `Cc1cc(CO)ccc1-c1ccc(N2CCC(Cc3nc(C)c(O)c(C(=O)NCC(=O)O)n3)CC2)cc1` [Example 25, ({[5-Hydroxy-2-{(1-[4′-(hydroxymethyl)-2′-methylbiphenyl-4-yl]piperidin-4-yl}methyl)-6-methylpyrimidin-4-yl]carbonyl}amino)acetic acid], which fold induction at 12.5 µM is on record?
Answer: 22

Question: For `CC[C@H](O)Cc1ccc(-c2ccc(N3CCC(Cc4nc(C)c(O)c(C(=O)NCC(=O)O)n4)CC3)cc2)cc1` [Example 47, [({5-Hydroxy-2-[(1-{4′-[(2S)-2-hydroxybutyl]biphenyl-4-yl}piperidin-4-yl)methyl]-6-methylpyrimidin-4-yl}carbonyl)amino]acetic acid], which fold induction at 12.5 µM is on record?
Answer: 34

Question: How did the fold induction at 12.5 µM turn out when `COC[C@H](O)Cc1ccc(-c2ccc(N3CCC(Cc4nc(C)c(O)c(C(=O)NCC(=O)O)n4)CC3)cc2)cc1` [Example 49, [({5-Hydroxy-2-[(1-{4′-[(2R)-2-hydroxy-3-methoxypropyl]biphenyl-4-yl}piperidin-4-yl)methyl]-6-methylpyrimidin-4-yl}carbonyl)amino]acetic acid] was run?
Answer: 18

Question: Which fold induction at 12.5 µM does the source give for `Cc1nc(CC2CCN(c3ccc(-c4ccc(CC(C)O)cc4)cn3)CC2)nc(C(=O)NCC(=O)O)c1O` (stereo not shown) [Example 20, [({5-Hydroxy-2-[(1-{5-[4-(2-hydroxypropyl)phenyl]pyridin-2-yl}piperidin-4-yl)methyl]-6-methylpyrimidin-4-yl}carbonyl)amino]acetic acid] here?
Answer: 11
